The values below come from patent US6706709B2, “Indolinone derivatives as protein kinase/phosphatase inhibitors” (Sugen, Inc., priority 2000, dated 2004).

In general, IC50 refers to the concentration at which inhibition is half-maximal.

One assay addresses GST-Flk1 (UniProt P35918). In words: GST-FLK-1 bioassay (bio flkGST). It counts as biochemical. Summed up:
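ELISA with Sf9-expressed GST-Flk1cd (5 ng/well) phosphorylating plate-coated poly(Glu,Tyr) 4:1 in Hepes pH 7.5 with MnCl2 and ATP (2 μM as 4× stock), 15 min at room temperature; EDTA stop. Phosphotyrosine detected with PY99-HRP and ABTS at 410 nm.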

In the next assay the target is T1, EGF Receptor (Homo sapiens, UniProt P00533).
T1 construct: expressed in transfected cells; host or cells: NIH 3T3/C7 (mouse fibroblasts engineered to express human EGF-R)
In words: bio EGF (EGF Receptor ELISA). The assay is classed as biochemical. In a few lines:
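Cells engineered to express human EGFR, seeded in 0.5% serum for ~40 h, then exposed to drug (stock diluted to 1:200 final, 1% DMSO) before 5 min EGF stimulation at 25 nM final. Lysates captured on anti-EGFR-coated plates, and phosphotyrosine detected by anti-pTyr/HRP ELISA at 410 nm. Percent inhibition calculated relative to control wells after negative-control subtraction.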
In general terms: ELISA stands for enzyme-linked immunosorbent assay.

T1 sequence (P00533 25-1210): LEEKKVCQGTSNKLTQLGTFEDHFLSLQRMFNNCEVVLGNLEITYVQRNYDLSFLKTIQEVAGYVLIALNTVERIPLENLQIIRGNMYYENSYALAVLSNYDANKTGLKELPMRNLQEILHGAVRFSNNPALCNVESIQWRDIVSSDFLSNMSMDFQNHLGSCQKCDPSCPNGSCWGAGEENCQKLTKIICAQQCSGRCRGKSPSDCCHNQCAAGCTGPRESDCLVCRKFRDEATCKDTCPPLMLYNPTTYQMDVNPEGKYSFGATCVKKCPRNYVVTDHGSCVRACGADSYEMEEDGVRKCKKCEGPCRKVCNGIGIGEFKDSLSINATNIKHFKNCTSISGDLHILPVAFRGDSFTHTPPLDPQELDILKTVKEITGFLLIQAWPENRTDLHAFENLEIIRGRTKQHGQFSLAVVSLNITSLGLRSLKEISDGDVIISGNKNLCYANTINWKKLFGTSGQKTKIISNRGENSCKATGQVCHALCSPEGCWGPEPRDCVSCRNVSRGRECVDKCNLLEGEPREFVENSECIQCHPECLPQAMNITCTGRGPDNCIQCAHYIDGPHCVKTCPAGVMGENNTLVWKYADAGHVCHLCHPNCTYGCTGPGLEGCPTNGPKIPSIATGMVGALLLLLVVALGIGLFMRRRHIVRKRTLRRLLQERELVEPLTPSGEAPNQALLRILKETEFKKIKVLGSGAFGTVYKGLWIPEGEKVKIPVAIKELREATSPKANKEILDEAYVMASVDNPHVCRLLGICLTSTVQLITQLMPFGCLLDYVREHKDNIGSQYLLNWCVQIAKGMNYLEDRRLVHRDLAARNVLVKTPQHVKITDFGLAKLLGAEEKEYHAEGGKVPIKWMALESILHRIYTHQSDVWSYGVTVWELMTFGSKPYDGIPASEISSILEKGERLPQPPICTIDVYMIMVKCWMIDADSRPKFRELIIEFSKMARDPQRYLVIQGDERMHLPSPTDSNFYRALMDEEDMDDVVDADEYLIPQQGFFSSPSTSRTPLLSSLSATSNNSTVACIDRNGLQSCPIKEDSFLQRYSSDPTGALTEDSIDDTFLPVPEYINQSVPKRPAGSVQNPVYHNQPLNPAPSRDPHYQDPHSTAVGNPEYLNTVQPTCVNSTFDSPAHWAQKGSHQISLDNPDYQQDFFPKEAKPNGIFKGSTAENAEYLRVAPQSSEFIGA

Regarding `CNS(=O)(=O)c1ccc2c(c1)C(=Cc1cc3ccccc3[nH]1)C(=O)N2` [IN-071, 3-(1H-indol-2-ylmethylene)-2-oxo-2,3-dihydro-1H-indole-5-sulfonic acid methylamide], the IC50 turned out to be 11.5 µM against GST-Flk1 and 22 µM on EGF Receptor.

On to `CN(C)S(=O)(=O)c1ccc2c(c1)C(=Cc1cc3cc(OCCN4CCOCC4)ccc3[nH]1)C(=O)N2` [IN-054, 3-[5-(2-morpholin-4-yl-ethoxy)-1H-indol-2-ylmethylene]-2-oxo-2,3-dihydro-1H-indole-5-sulfonic acid dimethylamide], for which the IC50 against GST-Flk1 was 4.28 µM; against EGF Receptor it was above 20 µM.

Regarding `CN(C)CCOc1ccc2[nH]c(C=C3C(=O)Nc4ccc(Br)cc43)cc2c1` [IN-011, 5-bromo-3-[5-(2-dimethylamino-ethoxy)-1H-indol-2-ylmethylene]-1,3-dihydro-indol-2-one], the IC50 against GST-Flk1 is 0.52 µM; at EGF Receptor, 1.36 µM.

Regarding `NS(=O)(=O)c1ccc2c(c1)C(=Cc1cc3cc(OCCN4CCCC4)ccc3[nH]1)C(=O)N2` [IN-039, 2-oxo-3-[5-(2-pyrrolidin-1-yl-ethoxy)-1H-indol-2-ylmethylene]-2,3-dihydro-1H-indole-5-sulfonic acid amide], the IC50 is 0.17 µM against GST-Flk1 and above 100 µM against EGF Receptor.

On to `COc1cccc(-c2ccc3c(c2)NC(=O)C3=Cc2cc3cc(OCCN4CCCC4)ccc3[nH]2)c1` [IN-027, 6-(3-methoxy-phenyl)-3-[5-(2-pyrrolidin-1-yl-ethoxy)-1H-indol-2-ylmethylene]-1,3-dihydro-indol-2-one], for which the IC50 is 2.01 µM against GST-Flk1 and above 20 µM against EGF Receptor.

On to `O=C1Nc2ccc(S(=O)(=O)Nc3ccc(Cl)cc3F)cc2C1=Cc1cc2cc(OCCN3CCCC3)ccc2[nH]1` [IN-049, 2-oxo-3-[5-(2-pyrrolidin-1-yl-ethoxy)-1H-indol-2-ylmethylene]-2,3-dihydro-1H-indole-5-sulfonic acid (4-chloro-2-fluoro-phenyl)-amide], for which the values for the IC50 on GST-Flk1 and against EGF Receptor were 0.13 µM and 4.38 µM, respectively.

In the case of `CNS(=O)(=O)c1ccc2c(c1)C(=Cc1c[nH]c3ccccc13)C(=O)N2` [IN-068, 3-(1H-indol-3-ylmethylene)-2-oxo-2,3-dihydro-1H-indole-5-sulfonic acid methylamide], the IC50 against GST-Flk1 is above 20 µM; at EGF Receptor, above 100 µM.

Take `O=C1Nc2ccc(-c3ccccc3)cc2C1=Cc1cc2cc(OCCN3CCOCC3)ccc2[nH]1` [IN-032, 3-[5-(2-morpholin-4-yl-ethoxy)-1H-indol-2-ylmethylene]-5-phenyl-1,3-dihydro-indol-2-one]: the IC50 on GST-Flk1 was 1.47 µM; at EGF Receptor it was above 20 µM.

Take `CNS(=O)(=O)c1ccc2c(c1)C(=Cc1cc3cc(OCCN4CCCC4)ccc3[nH]1)C(=O)N2` [IN-041, 2-oxo-3-[5-(2-pyrrolidin-1-yl-ethoxy)-1H-indol-2-ylmethylene]-2,3-dihydro-1H-indole-5-sulfonic acid methylamide]: the IC50 against GST-Flk1 turned out to be 0.21 µM; at EGF Receptor, 8.43 µM.

In the case of `O=C1Nc2ccc(S(=O)(=O)Nc3ccccc3)cc2C1=Cc1cc2cc(OCCN3CCOCC3)ccc2[nH]1` [IN-056, 3-[5-(2-morpholin-4-yl-ethoxy)-1H-indol-2-ylmethylene]-2-oxo-2,3-dihydro-1H-indole-5-sulfonic acid phenylamide], the IC50 against GST-Flk1 was determined as 9.96 µM; on EGF Receptor it was 15.5 µM.

For the molecule `Cc1[nH]c2ccccc2c1C=C1C(=O)Nc2ccc(S(=O)(=O)N(C)C)cc21` [IN-073, 3-(2-methyl-1H-indol-3-ylmethylene)-2-oxo-2,3-dihydro-1H-indole-5-sulfonic acid dimethylamide], the IC50 on GST-Flk1 is above 20 µM; on EGF Receptor, above 100 µM.

Take `O=C1Nc2ccc(-c3ccccc3)cc2C1=Cc1cc2cc(OCCN3CCCC3)ccc2[nH]1` [IN-006, 5-phenyl-3-[5-(2-pyrrolidin-1-yl-ethoxy)-1H-indol-2-ylmethylene]-1,3-dihydro-indol-2-one]: the IC50 against GST-Flk1 worked out at 0.16 µM; against EGF Receptor, 4.69 µM.

With `O=C1Nc2cc(C(=O)O)ccc2C1=Cc1cc2cc(OCCN3CCOCC3)ccc2[nH]1` [IN-031, 3-[5-(2-morpholin-4-yl-ethoxy)-1H-indol-2-ylmethylene]-2-oxo-2,3-dihydro-1H-indole-6-carboxylic acid], the IC50 against GST-Flk1 was 0.53 µM; against EGF Receptor it was above 20 µM.
